In PubChem BioAssay (NCI):
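Step 1: Grow cells in 96-well plates. Step 2: Expose to compound for 48 hours at 5 concentrations. Step 3: Interpolate endpoints linearly; if unreached, use highest concentration. At the GI50, growth is halved. At the TGI there is no net growth.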

Columns and labels:
Assay in all cases: NCI anticancer screen, dose series, 48 h
MCF7 breast = test system: MCF7 breast
SNB-75 CNS = test system: SNB-75 CNS
SN12C renal = test system: SN12C renal
OVCAR-3 ovarian = test system: OVCAR-3 ovarian
KM12 colon = test system: KM12 colon
HCT-15 colon = test system: HCT-15 colon
NCI-H23 lung = test system: NCI-H23 lung
COLO 205 colon = test system: COLO 205 colon
MDA-MB-435 = test system: MDA-MB-435
M14 melanoma = test system: M14 melanoma
HCT-116 colon = test system: HCT-116 colon
MALME-3M melanoma = test system: MALME-3M melanoma
RPMI-8226 leukemia = test system: RPMI-8226 leukemia
BT-549 breast = test system: BT-549 breast
SK-MEL-2 melanoma = test system: SK-MEL-2 melanoma
HS 578T breast = test system: HS 578T breast
SK-OV-3 ovarian = test system: SK-OV-3 ovarian
A498 renal = test system: A498 renal
HOP-92 NSCLC = test system: HOP-92 NSCLC
UO-31 renal = test system: UO-31 renal
SK-MEL-5 melanoma = test system: SK-MEL-5 melanoma
OVCAR-5 ovarian = test system: OVCAR-5 ovarian
MOLT-4 leukemia = test system: MOLT-4 leukemia
PC-3 prostate = test system: PC-3 prostate
U251 CNS = test system: U251 CNS
K-562 leukemia = test system: K-562 leukemia
LOX IMVI melanoma = test system: LOX IMVI melanoma
SF-539 CNS = test system: SF-539 CNS
HT29 colon = test system: HT29 colon
SW-620 colon = test system: SW-620 colon
NCI/ADR-RES ovarian = test system: NCI/ADR-RES ovarian
EKVX NSCLC = test system: EKVX NSCLC
SF-295 CNS = test system: SF-295 CNS
HOP-62 NSCLC = test system: HOP-62 NSCLC
CCRF-CEM leukemia = test system: CCRF-CEM leukemia
OVCAR-8 ovarian = test system: OVCAR-8 ovarian
OVCAR-4 ovarian = test system: OVCAR-4 ovarian
DU-145 prostate = test system: DU-145 prostate
SK-MEL-28 melanoma = test system: SK-MEL-28 melanoma
ACHN renal = test system: ACHN renal
HCC-2998 colon = test system: HCC-2998 colon
786-0 renal = test system: 786-0 renal
A549 NSCLC = test system: A549 NSCLC
NCI-H522 lung = test system: NCI-H522 lung
TK-10 renal = test system: TK-10 renal
SF-268 CNS = test system: SF-268 CNS
SNB-19 CNS = test system: SNB-19 CNS
NCI-H226 lung = test system: NCI-H226 lung
MDA-MB-231 breast = test system: MDA-MB-231 breast
T-47D breast = test system: T-47D breast
HL-60(TB) leukemia = test system: HL-60(TB) leukemia
UACC-257 melanoma = test system: UACC-257 melanoma
CAKI-1 renal = test system: CAKI-1 renal
SR leukemia = test system: SR leukemia
NCI-H460 lung = test system: NCI-H460 lung
UACC-62 melanoma = test system: UACC-62 melanoma
IGROV1 ovarian = test system: IGROV1 ovarian

Q: Which results are given for `CC[C@H](C)[C@H](NC(=O)C12C3C4C1C1C2C3C41NC(C)=O)C(=O)N(C)[C@H](C[C@@H](OC(C)=O)c1nc(C(=O)N[C@@H](Cc2ccccc2)C[C@H](C)C(=O)OC)cs1)C(C)C` (stereo partly drawn)?
A: GI50 (MCF7 breast): 50.3 nM; TGI (MCF7 breast): > 14300 nM; GI50 (SNB-75 CNS): 109 nM; TGI (SNB-75 CNS): > 14300 nM; GI50 (SN12C renal): 799 nM; TGI (SN12C renal): > 14300 nM; GI50 (OVCAR-3 ovarian): 56.5 nM; TGI (OVCAR-3 ovarian): 1080 nM; GI50 (KM12 colon): 471 nM; TGI (KM12 colon): > 14300 nM; GI50 (HCT-15 colon): 2410 nM; TGI (HCT-15 colon): > 14300 nM; GI50 (NCI-H23 lung): 884 nM; TGI (NCI-H23 lung): > 14300 nM; GI50 (COLO 205 colon): 346 nM; TGI (COLO 205 colon): 1710 nM; GI50 (MDA-MB-435): 42.7 nM; TGI (MDA-MB-435): 625 nM; GI50 (M14 melanoma): 259 nM; TGI (M14 melanoma): 2250 nM; GI50 (HCT-116 colon): 354 nM; TGI (HCT-116 colon): > 14300 nM; TGI (MALME-3M melanoma): > 14300 nM; GI50 (RPMI-8226 leukemia): 73.5 nM; TGI (RPMI-8226 leukemia): > 6780 nM; GI50 (BT-549 breast): 146 nM; TGI (BT-549 breast): 3840 nM; GI50 (SK-MEL-2 melanoma): 162 nM; TGI (SK-MEL-2 melanoma): > 14300 nM; GI50 (HS 578T breast): 468 nM; TGI (HS 578T breast): > 14300 nM; GI50 (SK-OV-3 ovarian): 703 nM; TGI (SK-OV-3 ovarian): > 14300 nM; GI50 (A498 renal): 503 nM; TGI (A498 renal): 10200 nM; GI50 (HOP-92 NSCLC): > 14300 nM; TGI (HOP-92 NSCLC): > 14300 nM; GI50 (UO-31 renal): 8550 nM; TGI (UO-31 renal): > 14300 nM; GI50 (SK-MEL-5 melanoma): 152 nM; TGI (SK-MEL-5 melanoma): 2980 nM; GI50 (OVCAR-5 ovarian): 3970 nM; TGI (OVCAR-5 ovarian): > 14300 nM; GI50 (MOLT-4 leukemia): 588 nM; TGI (MOLT-4 leukemia): > 14300 nM; GI50 (PC-3 prostate): 582 nM; TGI (PC-3 prostate): > 14300 nM; GI50 (U251 CNS): 434 nM; TGI (U251 CNS): > 14300 nM; GI50 (K-562 leukemia): 118 nM; TGI (K-562 leukemia): > 14300 nM; GI50 (LOX IMVI melanoma): 231 nM; TGI (LOX IMVI melanoma): > 14300 nM; GI50 (SF-539 CNS): 349 nM; TGI (SF-539 CNS): 1010 nM; GI50 (HT29 colon): 360 nM; TGI (HT29 colon): 2470 nM; GI50 (SW-620 colon): 206 nM; TGI (SW-620 colon): > 14300 nM; GI50 (NCI/ADR-RES ovarian): > 14300 nM; TGI (NCI/ADR-RES ovarian): > 14300 nM; GI50 (EKVX NSCLC): 2810 nM; TGI (EKVX NSCLC): > 14300 nM; GI50 (SF-295 CNS): 494 nM; TGI (SF-295 CNS): > 14300 nM; GI50 (HOP-62 NSCLC): 618 nM; TGI (HOP-62 NSCLC): > 14300 nM; GI50 (CCRF-CEM leukemia): 361 nM; TGI (CCRF-CEM leukemia): > 14300 nM; GI50 (OVCAR-8 ovarian): 614 nM; TGI (OVCAR-8 ovarian): > 14300 nM; GI50 (OVCAR-4 ovarian): 1380 nM; TGI (OVCAR-4 ovarian): > 14300 nM; GI50 (DU-145 prostate): 469 nM; TGI (DU-145 prostate): > 9880 nM; GI50 (SK-MEL-28 melanoma): > 3700 nM; TGI (SK-MEL-28 melanoma): > 14300 nM; GI50 (ACHN renal): 2530 nM; TGI (ACHN renal): > 14300 nM; GI50 (HCC-2998 colon): 279 nM; TGI (HCC-2998 colon): > 14300 nM; GI50 (786-0 renal): 902 nM; TGI (786-0 renal): > 14300 nM; GI50 (A549 NSCLC): 2820 nM; TGI (A549 NSCLC): > 14300 nM; GI50 (NCI-H522 lung): 63.7 nM; TGI (NCI-H522 lung): 513 nM; GI50 (TK-10 renal): 1110 nM; TGI (TK-10 renal): > 14300 nM; GI50 (SF-268 CNS): 677 nM; TGI (SF-268 CNS): > 14300 nM; GI50 (SNB-19 CNS): 578 nM; TGI (SNB-19 CNS): > 14300 nM; GI50 (NCI-H226 lung): > 9710 nM; TGI (NCI-H226 lung): > 14300 nM; GI50 (MDA-MB-231 breast): 435 nM; TGI (MDA-MB-231 breast): > 14300 nM; GI50 (T-47D breast): > 14300 nM; TGI (T-47D breast): > 14300 nM; GI50 (HL-60(TB) leukemia): 67.9 nM; TGI (HL-60(TB) leukemia): 383 nM; GI50 (UACC-257 melanoma): 563 nM; TGI (UACC-257 melanoma): > 14300 nM; GI50 (CAKI-1 renal): > 10800 nM; TGI (CAKI-1 renal): > 14300 nM; GI50 (SR leukemia): 33.1 nM; TGI (SR leukemia): > 14300 nM; GI50 (NCI-H460 lung): 402 nM; TGI (NCI-H460 lung): > 14300 nM; GI50 (UACC-62 melanoma): 112 nM; TGI (UACC-62 melanoma): > 14300 nM; GI50 (IGROV1 ovarian): 593 nM; TGI (IGROV1 ovarian): > 14300 nM
